Test results as given in patent publication US20130337463A1, “Cell-Based Models of Neurodegenerative Disease” (The Trustees of the University of Pennsylvania, priority 2010, published 2013).

Columns and labels:
[1] = system: primary hippocampal neurons derived from WT C57BL6 mice; assay: p-α-syn aggregate formation in primary hippocampal neurons after pff addition; format: cell-based, mouse; settings: for p-α-syn aggregate formation: pffs added to DIV5 neurons, 2 weeks
Method: Primary neuronal cultures were prepared from E16-E18 C57BL/6 mouse brains (Charles River, Wilmington, Mass.) and α-syn −/− mice (Abeliovich et al., 2000, Neuron 25:239-252). All procedures were performed according to the NIH Guide for the Care and Use of Experimental Animals and were approved by the University of Pennsylvania Institutional Animal Care and Use Committee. Hippocampi were dissected, rinsed with Hank's Balanced Salt Solution (HBSS) and digested in HBSS containing papain (20 U/mL; Worthington Biochemical Corporation; Lakewood, N.J.) containing DNase (20 μg/mL; Worthington Biochemical Corporation; Lakewood, N.J.). Following rinses in plating media (10% fetal bovine serum, 1% penicillin/streptomycin, Glutamax, B27, Neurobasal media; Invitrogen, Carlsbad, Calif.) and HBSS, dissociated hippocampal neurons were plated in plating media onto poly-D-lysine (0.1 mg/mL, diluted in borate buffer, 0.1M, pH8.4) coated coverslips (Carolina Biological Supply, Burlington, N.C.) in 24 well trays at 20,000-40,000 cells/cm^2 or poly-D-lysine coated 60 mm dishes at 70-100,000 cells/cm2. The media was then changed to neuronal media (1% penicillin/streptomycin, Glutamax, B27, Neurobasal media). Most experiments were performed at 19 days in vitro (DIV).
Recombinant full-length and truncated α-syn with and without a C-terminal myc-tag, were purified as previously described (Giasson et al., 2001, J. Biol. Chem. 276:2380-2386). α-syn pffs were generated by incubating purified α-syn (5 mg/mL in PBS) at 37° C. with constant agitation for 5 days, followed by aliquoting and storage at […]. The presence of amyloid was confirmed using Thioflavin T fluorometry. Fibrils of α-syn synthetic NAC peptide (amino acids 61-95) (Biotechnology Resource Center, Yale University) were generated as described (Giasson et al., 2001, J. Biol. Chem. 276:2380-2386). Pffs were diluted in PBS at 0.1 mg/mL, sonicated several times, and diluted in neuronal media. For a 24-well tray, 1 μg/mL of pffs were added, and 5 μg/mL of α-syn pffs were added to a […]. For WGA experiments, α-syn pffs were incubated with 1 μg/mL or 5 μg/mL WGA or preincubated for 1 hr (h) with 0.1 M GlcNAC followed by incubation with media containing α-syn pffs, GlcNAC, and WGA.
Neurons were fixed with 4% paraformaldehyde in PBS containing 4% sucrose followed by permeabilization with 0.1% Triton X-100. To determine if the pathologic α-syn aggregates were detergent-insoluble, neurons were fixed with 4% paraformaldehyde, 4% sucrose and 1% Tx-100 (Luk et al., 2009, Proc. Natl. Acad. Sci. USA 106:20051-20056). Following fixation, neurons were blocked with 3% bovine serum albumin (BSA) in PBS, and incubated in primary antibodies (Table 6) followed by Alex fluor 594 or 488-conjugated secondary antibodies (anti-mouse, anti-rabbit, anti-IgG1 and anti-IgG2a; Invitrogen; Carlsbad, Calif.) diluted in blocking buffer. To assess cell viability, cells were incubated with ethidium homodimer (2 μM, Sigma Aldrich, St. Louis, Mo.) and Hoechst 33342 (1:1000, Invitrogen, Carlsbad, Calif.) and the percent overlap between both dyes was determined using Metamorph software (Molecular Devices, Sunnyvale, Calif.).

[2] = system: QBI-WT-Syn cells (QBI-293 cells stably expressing WT α-Syn); assay: α-Syn inclusion formation after Bioporter transduction of QBI-WT-Syn cells; format: cell-based, human; settings: immunostaining 48 h after transduction
Method: QBI cells were plated in 35-mm tissue culture plates and allowed to reach 80-90% confluence for transduction experiments. Cells were transferred to serum-free media 1 h before transduction. For each plate, 10 μL of cationic-liposomal protein transduction reagent (Bioporter; Sigma) was added to a 1.5-mL Microfuge tube and evaporated as per the manufacturer's guidelines. The resulting reagent dry-film was then directly resuspended with 80 μL of PBS containing α-Syn fibrils (100 μg/mL) fragmented by brief sonication with a hand-held probe. Protein:reagent complexes were allowed to form at room temperature for 10 min, after which the mixture was further diluted in OptiMEM (Invitrogen) and added to cells. Cells were then further incubated for 4 h, washed twice with Versene and 0.5% trypsin/EDTA to remove extracellular α-Syn fibrils, and transferred onto 6-well tissue culture plates or poly(d-lysine)-coated glass coverslips. […]
Cells on coverslips were washed with PBS and fixed with 4% paraformaldehyde. […] Epifluorescence images were obtained by using a Nikon Eclipse 3000 inverted microscope equipped with a CoolSNAP HQ camera (Roper Scientific) and analyzed by using Metamorph 6.0 (Molecular Devices). […] Confocal laser scanning microscopic images were obtained by using a Zeiss LSM510 microscope and analyzed by using Volocity software (Improvision).

[3] = system: T40/P301L-transfected cells; assay: Fibril-alone transduction without BioPORTER reagent (spontaneous PFF uptake); format: cell-based, human
Method: For fibril-alone transduction without BioPORTER reagent, cells were placed on starvation medium right before the addition of fibrils. Fibrils were processed as described above and the same amount was used as in reagent-mediated transduction. Cells were trypsinized and replated either 4 hr or 30 hr after the initial addition of fibrils. For experiments using WGA, different doses of WGA were added to starvation medium together with PFFs. To inhibit endocytosis of WGA, 0.1 M GlcNAc was incubated with medium containing PFFs and 10 µg/ml WGA for 1 hr at 37° C. before being added to cells which were pre-incubated in 0.1M GlcNAc-containing medium for 1 hr. Cells were placed on WGA-free starvation medium 5-6 hr after fibril addition and fixed after overnight incubation to minimize possible toxicity resulted from WGA treatment.
Immunocytochemistry was performed 48 hr after the initial addition of fibrils unless indicated otherwise. Cells were fixed in 4% paraformaldehyde (PFA) for 10 min and permeabilized with 0.1% Triton-X100 for 15 min, or fixed with 4% PFA containing 1% Triton-X100 for 15 min to remove soluble proteins. For visualization of microtubules, cells were fixed with 0.3% glutaraldehyde in PEM buffer (80 mM PIPES, pH6.8, 5 mM EGTA, 1 mM MgCl2) for 10 min, extracted with 1% Triton-X100 for 15 min before being quenched with 10 mg/ml sodium borohydride for 7 min followed by 0.1 M glycine for 20 min. […]
For quantifying the percentage of cells developing tau aggregates with different combinations of endogenous tau and PFFs, 10-20 random-field images were taken at 40× magnification for each combination and at least two independent experiments were performed. For quantification of MT-bundling and PFF-induced tau aggregation in the absence of bioPORTER reagent under various conditions (i.e. different temperatures, with or without WGA/GlcNAc), 10 random-field images were taken at 20× magnification for each condition in each experiment and 3-4 independent experiments were performed. […]

AMPAR = settings: published (Dev et al., 1996); cited from earlier work

With “α-syn-1-89: human α-syn pffs composed of residues 1-89” the p-α-syn aggregate formation [1] was “robust accumulation of endogenous p-α-syn aggregates”.
In the case of “β-galactosidase: unrelated soluble protein”, the inclusion formation [2] is reported as “did not result in inclusion formation”.
For CC(=O)N[C@H]1C(O)O[C@H](CO)[C@@H](O)[C@@H]1O (stereo partly shown) [GlcNAc, N-acetyl glucosamine], the “effect on WGA-enhanced aggregate formation” value ([1]; 0.1 M GlcNAc) was “reduced the effects of WGA on α-syn pff-induced aggregate formation” and the “effect on WGA-enhanced PFF uptake and tau aggregation” value ([3]; 0.1 M GlcNAc added to the medium) was “significantly attenuated”.
In the case of NS(=O)(=O)c1cccc2c1c([N+](=O)[O-])cc1nc(O)c(O)nc12 [NBQX], the IC50 (AMPAR) is given as 47 nM.
With wheat germ agglutinin [WGA] the “effect on extent of p-α-syn pathology” value ([1]; co-incubation with α-syn-hWT pffs, 1 or 5 μg/mL WGA, 4 days) was “dose-dependently increased the extent of p-α-syn pathology”, the “effect on prevalence of tau aggregate-bearing cells” value ([3]; co-incubated with myc-K18/P301L PFFs, 0, 5, 10, 15 µg/ml WGA) was “increased the prevalence of tau aggregate-bearing cells” and the “accumulation of insoluble tau in the absence of PFFs” value ([3]; up to 15 µg/ml of WGA) was “nor does it induce accumulation of insoluble tau in the absence of PFFs”.
In the case of “α-syn-58-140: human α-syn pffs composed of residues 58-140”, the p-α-syn aggregate formation [1] is reported as “seeded formation of endogenous mouse α-syn aggregates”.
With “α-syn-NAC: fibrils of α-syn synthetic NAC peptide (amino acids 61-95)” the p-α-syn aggregate formation [1] was “resulted in endogenous mouse α-syn fibrillar LB-like aggregates”.
